Laboratory results from patent US20240208959A1, “THIAZOLE/ISOTHIAZOLE HSD17B13 INHIBITORS AND USES THEREOF” (INIPHARM, INC., priority 2021, published 2024).

biological target: T1, HSD17B13 enzyme (Homo sapiens, UniProt Q7Z5P4); experiment: LC/MS estrone detection assay: conversion of estradiol to estrone by HSD17B13; format: biochemical; conditions: 4 μM Estradiol, 6mM NAD, 30 nM HSD17B13 enzyme (E. coli expressed His-tagged), 2 hours at 26.5° C.
T1 construct: His; made in house; host or cells: E. coli
T1 sequence (Q7Z5P4 20-300): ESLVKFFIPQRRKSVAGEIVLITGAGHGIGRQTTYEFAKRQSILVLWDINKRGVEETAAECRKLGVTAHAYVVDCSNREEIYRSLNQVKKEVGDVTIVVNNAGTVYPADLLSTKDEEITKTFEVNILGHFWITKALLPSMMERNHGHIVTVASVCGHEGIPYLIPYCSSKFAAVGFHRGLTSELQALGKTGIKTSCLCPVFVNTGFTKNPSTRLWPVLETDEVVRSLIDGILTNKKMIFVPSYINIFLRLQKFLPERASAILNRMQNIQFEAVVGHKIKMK
Experimental: Example A: Estrone Detection Assay for Evaluation of HSD17β13 Activity and Identification of Inhibitors
The liquid chromatography/mass spectrometry (LC/MS) estrone detection assay monitors the conversion of estradiol to estrone by HSD17B13. This assay was undertaken in a 96wp format (Eppendorf deep well Plate 96/500) in an 80 μl reaction volume containing: 4 μM of Estradiol (E2: Cayman: #10006315), 6mM NAD (Sigma: #N0623) and 30 nM HSD17B13 enzyme (in-house: E. coli expressed His-tagged, purified, soluble protein) in a reaction containing […] potassium phosphate buffer pH 7.4, with 0.5% vehicle (DMSO). Reactions were incubated for 2 hours at 26.5° C., and estradiol (E2) conversion to estrone (E1) was quantitated by LC-MS/MS based analyte detection for both E2 and E1 using LCMS grade reagents.
Reactions were terminated by the addition of two volumes of acetonitrile (MeCN: LCMS grade: CAS #75/05/8) containing deuterated (D4)-E1 used as internal standard (Clear Synth: #CS-T-54273: 500 ng/mL final concentration). Samples were applied to pre-prepared Bond Elut-C18 extraction cartridges (3 mL: Agilent: #12102028), washed and eluted in MeCN. Eluates were dried under nitrogen and re-suspended in 60% methanol (LCMS grade methanol: CAS #67/56/1) before submission for analysis. Aqueous linearity for E2 and E1 were included for quantification.
Analysis of samples was undertaken on a XBridge BEH C18 column (Waters: #186003033) using 0.1% Diethyl Amine in MeCN (mobile phase A: DEA CAS #109-89-7) and 0.1% Diethyl Amine in milli-Q water (mobile phase B) in a 3 min gradient allowing 25% B. Analytes were detected in negative mode using MRM analysis, with E2 having a RT of 1.85 min and E1 having a RT of 2 min Activity of the enzyme, in the absence of NAD′, was used to evaluate specificity of conversion. Enzyme activity in the presence of test samples was expressed as a percentage of the uninhibited enzyme activity, and plotted versus inhibitor concentration. Non-linear regression was performed using a four-parameter logistic model and GraphPad Prism software (GraphPad Software, La Jolla, CA). All assessments were undertaken in duplicate evaluations and pooled during extraction process and subsequently injected as duplicates for LC-MS/MS analysis.

| SMILES | IC50 [nM] |
| --- | --- |
| O=C(Nc1scnc1C(=O)NC(CO)c1ccccc1)c1ccc(O)c(Cl)c1 (stereo in doubt) [Example 6, (R)-5-(3-chloro-4-hydroxybenzamido)-N-(2-hydroxy-1-phenylethyl)thiazole-4-carboxamide] | ≤ 100 |
| COC(=O)C(NC(=O)c1scnc1NC(=O)c1ccc(O)c(Cl)c1)c1ccccc1 (stereo in doubt) [Example 7, methyl (R)-2-(4-(3-chloro-4-hydroxybenzamido)thiazole-5-carboxamido)-2-phenylacetate] | 100 to 500 |
| O=C(Nc1ncsc1C(=O)NC(C(=O)O)c1ccccc1)c1ccc(O)c(Cl)c1 (stereo in doubt) [Example 8, (R)-2-(4-(3-chloro-4-hydroxybenzamido)thiazole-5-carboxamido)-2-phenylacetic Acid] | 1000 to 10000 |
| O=C(Nc1ncsc1C(=O)NCCc1ccccc1C(F)(F)F)c1ccc(O)c(C(F)(F)F)n1 [Example 1, 4-(5-hydroxy-6-(trifluoromethyl)picolinamido)-N-(2-(trifluoromethyl)phenethyl)thiazole-5-carboxamide] | 100 to 500 |
| O=C(Nc1ncsc1C(=O)NCCc1ccccc1F)c1ccc(O)c(C(F)(F)F)n1 [Example 2, N-(2-fluorophenethyl)-4-(5-hydroxy-6-(trifluoromethyl)picolinamido)thiazole-5-carboxamide] | 100 to 500 |
| CC(C)(C)CCNC(=O)c1scnc1NC(=O)c1ccc(O)c(C(F)(F)F)n1 [Example 3, N-(3,3-dimethylbutyl)-4-(5-hydroxy-6-(trifluoromethyl)picolinamido)thiazole-5-carboxamide] | 500 to 1000 |
| O=C(Nc1ncsc1C(=O)NCc1ccccc1C(F)(F)F)c1cc(F)c(O)c(F)c1 [Example 4, 4-(3,5-difluoro-4-hydroxybenzamido)-N-(2-(trifluoromethyl)benzyl)thiazole-5-carboxamide] | ≤ 100 |
| Cc1nsc(NC(=O)c2ccc(O)c(Cl)c2)c1C(=O)NCCC(C)(C)C [Example 5, 5-(3-chloro-4-hydroxybenzamido)-N-(3,3-dimethylbutyl)-3-methylisothiazole-4-carboxamide] | ≤ 100 |
| O=C(Nc1ncsc1C(=O)NCc1ccccc1C(F)(F)F)c1cc(F)c(O)c(Cl)c1 [Example 9, 4-(3-chloro-5-fluoro-4-hydroxybenzamido)-N-{[2-(trifluoromethyl)phenyl]methyl}-1,3-thiazole-5-carboxamide] | ≤ 100 |
| O=C(Nc1ncsc1C(=O)NCc1ccccc1F)c1cc(F)c(O)c(Cl)c1 [Example 10, 4-(3-chloro-5-fluoro-4-hydroxybenzamido)-N-(2-fluorobenzyl)thiazole-5-carboxamide] | 100 to 500 |
| O=C(Nc1ncsc1C(=O)NCc1ccccc1OC(F)(F)F)c1cc(F)c(O)c(Cl)c1 [Example 11, 4-(3-chloro-5-fluoro-4-hydroxybenzamido)-N-(2-(trifluoromethoxy)benzyl)thiazole-5-carboxamide] | 100 to 500 |
| COc1ccccc1CCNC(=O)c1nc(C)sc1NC(=O)c1ccc(O)c(Cl)c1 [Example 12, 5-(3-chloro-4-hydroxybenzamido)-N-(2-methoxyphenethyl)-2-methylthiazole-4-carboxamide] | ≤ 100 |
| O=C(Nc1scnc1C(=O)NCc1ccccc1OC(F)(F)F)c1cc(Cl)c(=O)[nH]n1 [Example 13, 5-(5-chloro-6-oxo-1,6-dihydropyridazine-3-carboxamido)-N-(2-(trifluoromethoxy)benzyl)thiazole-4-carboxamide] | 500 to 1000 |
| CC(C)c1cc(C(=O)Nc2scnc2C(=O)NCc2ccccc2OC(F)(F)F)n[nH]c1=O [Example 14, 5-(5-isopropyl-6-oxo-1,6-dihydropyridazine-3-carboxamido)-N-(2-(trifluoromethoxy)benzyl)thiazole-4-carboxamide] | > 10000 |
| O=C(Nc1scnc1C(=O)NCc1ccccc1OC(F)(F)F)c1ccc(=O)[nH]n1 [Example 15, 5-(6-oxo-1,6-dihydropyridazine-3-carboxamido)-N-(2-(trifluoromethoxy)benzyl)thiazole-4-carboxamide] | > 10000 |
| O=C(Nc1scnc1C(=O)NCc1ccccc1OC(F)(F)F)c1c[nH]c(=O)cn1 [Example 16, 5-(5-oxo-4,5-dihydropyrazine-2-carboxamido)-N-(2-(trifluoromethoxy)benzyl)thiazole-4-carboxamide] | > 10000 |
